{
  "source": "patent US10323051B2",
  "about": "“Methods for controlling depolymerization of polymer compositions” (RHODIA OPERATIONS, priority 2011, dated 2019)",
  "key": {"[1]": {"assay": "Molecular weight determination of polymer in the presence of THPS by GPC with light scattering detection", "format": "physicochemical", "settings": "for Mn / Mw / Polydispersity (Mw/Mn): 75 ppm THPS, 1% pol A, overnight at ambient temperature"}, "[2]": {"assay": "Viscosity of THPS-(1%) polyacrylamide aqueous dispersion (OFITE viscometer, 300 rpm)", "format": "physicochemical", "settings": "for viscosity @300 rpm (shear rate 500 s-1) after 60 minutes / viscosity @300 rpm after 60 minutes: 1% polyacrylamide; for effect on depolymerization: polyacrylamide with THPS under aerobic conditions at acidic pH, inhibitor added; for viscosity @300 rpm after 60 minutes: no depolymerization inhibitor"}, "[3]": {"settings": "guar or guar derivatives mixed with THPS at 10-1000 ppm", "procedure": "The polymer(s) under investigation were weighed and dissolved in (deionized) DI water to attain a desired concentration (for example, 0.48% w/w guar, 1.0% w/w polyacrylamide). The solution was mixed thoroughly for 1 h to ensure that the polymer had fully or substantially dissolved and the polymer fully hydrated\nThe polymer solution as prepared above was placed in a 250 ml beaker. Viscosity was measured with an OFITE viscometer (model 900). Initial viscosity was recorded (300 rpm) (at 500 s^−1) and then an acetic acid/sodium acetate buffer added to achieve a total concentration in the polymer solution of 0.2% w/w. pH and viscosity were recorded and then the depolymerization inhibitor was added. THPS at the concentration being investigated was then added. Viscosity measurements were then made at various time intervals as recorded in the table of FIG. 1."}},
  "note": "Like-named read-outs stand apart in the source and are kept apart here.",
  "data": [
    {"compound": "O=C1O[C@H]([C@@H](O)CO)C(O)=C1O", "note": "[ascorbic acid]", "values": [
      {"measurement": "Mn", "setting": "[1]; 1 ppm ascorbic acid", "result": "1,460,000 g/mol"},
      {"measurement": "Mw", "setting": "[1]; 1 ppm ascorbic acid", "result": "1,770,000 g/mol"},
      {"measurement": "Polydispersity (Mw/Mn)", "setting": "[1]; 1 ppm ascorbic acid", "result": 1.22},
      {"measurement": "Mn", "setting": "[1]; 10 ppm ascorbic acid", "result": "1,480,000 g/mol"},
      {"measurement": "Mw", "setting": "[1]; 10 ppm ascorbic acid", "result": "1,840,000 g/mol"},
      {"measurement": "Polydispersity (Mw/Mn)", "setting": "[1]; 10 ppm ascorbic acid", "result": 1.25},
      {"measurement": "Mn", "setting": "[1]; 50 ppm ascorbic acid", "result": "1,590,000 g/mol"},
      {"measurement": "Mw", "setting": "[1]; 50 ppm ascorbic acid", "result": "1,890,000 g/mol"},
      {"measurement": "Polydispersity (Mw/Mn)", "setting": "[1]; 50 ppm ascorbic acid", "result": 1.19},
      {"measurement": "viscosity @300 rpm (shear rate 500 s-1) after 60 minutes", "setting": "[2]; 75 ppm THPS with 100 ppm ascorbic acid (rerun), initial viscosity 27.5 cP", "result": 25.9, "unit": "cP"},
      {"measurement": "viscosity @300 rpm (shear rate 500 s-1) after 60 minutes", "setting": "[2]; 75 ppm THPS with 200 ppm ascorbic acid, initial viscosity 27.5 cP", "result": 24.5, "unit": "cP"},
      {"measurement": "effect on depolymerization", "setting": "[2]", "result": "the depolymerization is controlled or stopped"}
    ]},
    {"compound": "tetrakis(hydroxymethyl)phosphonium sulfate [THPS, reference compound]", "values": [
      {"measurement": "Mn", "setting": "[1]; no inhibitor", "result": "652,000 g/mol"},
      {"measurement": "Mw", "setting": "[1]; no inhibitor", "result": "812,000 g/mol"},
      {"measurement": "Polydispersity (Mw/Mn)", "setting": "[1]; no inhibitor", "result": 1.25},
      {"measurement": "Mw of THPS/polymer solution without an inhibitor relative to Mw with an inhibitor", "setting": "[1]; after being left overnight", "result": "approximately half"},
      {"measurement": "effect on viscosity and molecular weight", "setting": "[3]", "result": "reduction in viscosity of the application fluid along with a corresponding molecular weight reduction"},
      {"measurement": "viscosity @300 rpm after 60 minutes", "setting": "[2]; 50 ppm THPS, initial viscosity 23.8 cP", "result": 9.7, "unit": "cP"},
      {"measurement": "viscosity @300 rpm after 60 minutes", "setting": "[2]; 75 ppm THPS, initial viscosity 23.8 cP", "result": 7.3, "unit": "cP"},
      {"measurement": "viscosity @300 rpm after 60 minutes", "setting": "[2]; 100 ppm THPS, initial viscosity 23.8 cP", "result": 3.9, "unit": "cP"},
      {"measurement": "viscosity @300 rpm after 60 minutes", "setting": "[2]; 125 ppm THPS, initial viscosity 23.8 cP", "result": 2, "unit": "cP"},
      {"measurement": "effect on viscosity and molecular weight", "setting": "[2]; polyacrylamide or polyacrylamide-co-acrylic acid solutions mixed with THPS at 50-1000 ppm", "result": "reduction in viscosity along with a corresponding molecular weight reduction"}
    ]},
    {"compound": "Oc1ccc(O)cc1", "note": "[hydroquinone]", "values": [
      {"measurement": "viscosity @300 rpm (shear rate 500 s-1) after 60 minutes", "setting": "[2]; 75 ppm THPS with 25 ppm hydroquinone, initial viscosity 23.8 cP", "result": 14.6, "unit": "cP"},
      {"measurement": "viscosity @300 rpm (shear rate 500 s-1) after 60 minutes", "setting": "[2]; 75 ppm THPS with 50 ppm hydroquinone, initial viscosity 25.1 cP", "result": 17.1, "unit": "cP"},
      {"measurement": "effect on depolymerization", "setting": "[2]", "result": "the depolymerization is controlled or stopped"}
    ]}
  ]
}
